Laboratory results reported in patent publication US8501679B2, “Cyclic, cystein-free protein” (priority 2007, dated 2013).
“Also recorded” adds a separate entry of the source. Where a SMILES comes first, the peptide text is derived from it. Bridges are numbered along the chain shown (N, C = ends).

Key:
[1] = test system: sodium ion channels of H441 cells; test: Activation of ion channels of human epithelial cells, patch-clamp (whole cell / cell-attached); format: cell-based; details: FIG. 2A/2B
Description: Furthermore, a method common in laboratories is to detect the activation of ion channels by means of patch-clamp experiments, and this is described, for example, in Clunes M. T. et al, J Physiol Volume 557, No. 3, 809-819 (Jun. 15, 2004). For patch-clamp examinations of ion channels, a glass cannula is stretched thin and filled with a neutral buffer solution. The glass cannula (patch-clamp pipette) is carefully pressed onto an intact epithelial cell. A piece of membrane is located below the pipette. An electrical resistance is thereby produced between the interior of the pipette and the external solution. An electrode attached to a sensitive amplifier dips into the pipette solution.
The electrophysiological experiments were performed on human H441 cells. H441 cells are human lung epithelial cells which are involved in the diffusion of water and electrolytes in the lungs.
The H441 cells were obtained from the American Tissue Culture Collection and cultivated in conventional cell culture vessels in RPMI 1640 medium (Invitrogen). […]
This protocol was carried out by adding proteins comprising amino acid sequence SEQ ID NO:1 or SEQ ID NO:2 as well as the sodium channel inhibitor amiloride. The current dissipations thus obtained were stored and analyzed by means of the program PCLAMP 6.0.

[2] = test system: pulmonary oedema / acute lung injury in Wistar rats; test: Experimental animal study pulmonary oedema: lungs rinsed with acidified saline, arterial oxygen content; format: in vivo, rat; details: for improvement in the lung function (increased oxygen content in arterial blood): laboratory animals, injected into the lungs as a fog or aqueous solution, within 3 to 5 hours; for oxygen content of the arterial blood, % relative to the value before rinsing the lungs / oxygen content in the blood after administering protein: rat; for oxygen content of the arterial blood, % relative to the value before rinsing the lungs: 125 μg protein intratracheal, 180 minutes after rinsing the lungs, 20% at 60 minutes and without protein; for oxygen content in the blood after administering protein: intratracheal as a fog one hour after lung rinsing, FIG. 3A/3B
Procedure: For the simulation of an acute lung injury and for the formation of a pulmonary oedema, the lungs of laboratory animals, e.g., mice or rats, can be rinsed several times with an acidified saline solution in a manner common in laboratories (for example, according to Isik F. et al., Eur J Cardiothorac Surg (2005); 28: 301-305). The result is a decrease in lung function.
Male Wistar rats (weighing from 250 g to 350 g) are anesthetized with Rompun® (0.02 ml/100 g) and Ketavet® (0.1 ml/100 g). The respiration is done with a cycle of 72 blows/minute, with an inhalation time of 0.2 seconds and an exhalation time of 0.5 seconds. The body temperature ranges, on average, from 37° C. to 39° C. Under normal conditions, the PaO2 (arterial oxygen partial pressure) ranges from 500 to 550 mm Hg.
For the simulation of an acute lung injury and for the formation of a pulmonary oedema, the lungs are rinsed 7 to 9 times with an acidified saline solution (pH 5).
After one hour, the proteins comprising amino acid sequence SEQ ID NO:1 or SEQ ID NO:2, dissolved in sterile saline solution, are administered intratracheally as a fog (maximum volume administered: 0.5 ml).
At intervals of 60 minutes each, arterial blood (0.1 ml) is withdrawn from the animals, and the oxygen content is determined in % relative to the normal value.
The verification of the stimulating effect of a protein according to the present invention, e.g., of a protein comprising amino acid sequence SEQ ID NO:1, SEQ ID NO:2 or SEQ ID NO:3, on the lung function is made via experimental animal studies in which a pulmonary oedema is induced. The experimental procedure is described in Example 5.
For the intratracheal inhalation, 125 μg protein are, in each case, dissolved in 150 mM saline solution pH 7.3. The oxygen content of the arterial blood is measured immediately before rinsing the lungs, 60 minutes after rinsing the lungs and 180 minutes after rinsing the lungs. The oxygen content immediately before rinsing the lungs is determined to be 100%. 60 minutes after the respective final lung rinsing, the oxygen content in the blood amounts to, on average, only 20%. Within 3 hours, the percentage oxygen content rises to values of […]

[3] = test system: human immune cells in fresh blood (IL-6 release); test: Determination of inflammatory parameters: release of Interleukin-6 from human fresh blood (ELISA); format: cell-based; details: for release of the inflammation marker IL-6: human immune cells from blood incubated with the substance; for Concentration of Interleukin-6 (average of three measurements): human fresh blood, 24 hours at 37° C.
Procedure: For the examination, human immune cells from the blood are mixed with protein according to the present invention at a small concentration and are incubated in a manner common in laboratories. Subsequently, marker proteins for inflammations are determined in cell-free culture media by conventional methods.
Fresh human blood has a very sensitive reaction to pro-inflammatory molecules, among other things, with a release of the inflammation marker Interleukin-6 (IL-6). For determining the pro-inflammatory reaction, samples of human fresh blood at concentrations of the protein comprising amino acid sequence SEQ ID NO:2 were incubated at the following concentrations from 1 ng/ml to 10 μg/ml. After an incubation of 24 hours at 37° C., the inflammation marker Interleukin-6 was quantitatively determined in the solution via ELISA. LPS served as a positive control (concentrations of 3 ng/ml and 100 ng/ml).
In doing so, the measured data, which are indicated in TABLE 1 and which show the influence of the peptide protein comprising amino acid sequence SEQ ID NO:2 in comparison to LPS on the release of the inflammation marker Interleukin-6 from blood cells, were obtained.

Structure (SMILES) | activation of the sodium ion channels (amplitude of electrical signal) [1] | improvement in the lung function (increased oxygen content in arterial blood) [2] | oxygen content of the arterial blood, % relative to the value before rinsing the lungs [2] | oxygen content in the blood after administering protein [2] | release of the inflammation marker IL-6 [3] | Concentration of Interleukin-6 (average of three measurements) ([3]; 1 ng/ml) | Concentration of Interleukin-6 (average of three measurements) ([3]; 3 ng/ml) | Concentration of Interleukin-6 (average of three measurements) ([3]; 1 μg/ml) | Concentration of Interleukin-6 (average of three measurements) ([3]; 10 μg/ml)
CC[C@H](C)[C@H](NC(=O)[C@H](C)NC(=O)[C@H](CO)NC(=O)[C@H](CC(C)C)NC(=O)[C@H](CC(C)C)NC(=O)[C@H](CC(N)=O)NC(=O)[C@@H](N)C(C)C)C(=O)N[C@H]1CCCCNC(=O)CC[C@@H](C(=O)N2CCC[C@H]2C(=O)N[C@H](C(=O)N[C@@H](Cc2ccc(O)cc2)C(=O)N[C@@H](CC(C)C)C(=O)NCC(=O)O)[C@@H](C)CC)NC(=O)[C@H](Cc2ccc(O)cc2)NC(=O)[C@H](Cc2c[nH]c3ccccc23)NC(=O)[C@@H]2CCCN2C(=O)[C@H](CCCCN)NC(=O)[C@H](C)NC(=O)[C@H](CCC(=O)O)NC(=O)[C@H](C)NC(=O)CNC(=O)[C@H](CCC(=O)O)NC(=O)[C@@H]2CCCN2C(=O)[C@H]([C@@H](C)O)NC(=O)[C@H](CCC(=O)O)NC(=O)[C@H](CCCNC(=N)N)NC(=O)[C@H](CCC(N)=O)NC(=O)CNC(=O)[C@@H]2CCCN2C(=O)[C@H](CO)NC1=O [SEQ ID NO:1] (H-VNLLSAIKSPGQRETPEGAEAKPWYEPIYLG-OH; lactam 8-26) | activation of the sodium ion channels | distinct improvement in the lung function | 62% | increased | cannot be detected | – | – | – | –
C[C@@H]1NC(=O)CNC(=O)[C@H](CCC(=O)O)NC(=O)[C@@H]2CCCN2C(=O)[C@H]([C@@H](C)O)NC(=O)[C@H](CCC(=O)O)NC(=O)[C@H](CCCNC(=N)N)NC(=O)[C@H](CCC(N)=O)NC(=O)CNC(=O)[C@@H]2CCCN2C(=O)[C@H](CO)NC(=O)[C@@H](N)CCCCNC(=O)CC[C@@H](C(=O)O)NC(=O)[C@H](Cc2ccc(O)cc2)NC(=O)[C@H](Cc2c[nH]c3ccccc23)NC(=O)[C@@H]2CCCN2C(=O)[C@H](CCCCN)NC(=O)[C@H](C)NC(=O)[C@H](CCC(=O)O)NC1=O [SEQ ID NO:2, (NH2)Lys-Ser-Pro-Gly-Gln-Arg-Glu-Thr-Pro-Glu-Gly-Ala-Glu-Ala-Lys-Pro-Trp-Tyr-Glu(COOH)] | activation of the sodium ion channels | distinct improvement in the lung function | 75% | increased | cannot be detected; also recorded: virtually no inflammation marker IL-6 is released | less than 0.5 pg/ml | less than 0.5 pg/ml | less than 0.5 pg/ml | less than 0.5 pg/ml
